Source: US20150065440A1 (Progen Pharmaceuticals Limited, priority 2007, published 2015)

Assay type: in vivo, Sprague-Dawley rats
Settings: rat, in vivo, iv
Description: Adult male Sprague-Dawley (SD) rats (approx 300 g) were used for the experiment. Femoral artery cannulae was implanted and exteriorised following isoflurane anaesthesia. Jugular vein artery cannulae was implanted and exteriorized. […]. Blood samples (˜325 μL) were collected into sample tubes containing the anticoagulant sodium citrate from femoral artery catheter pre-dose and at 5, 20 minutes and 2, 5, 8, 12, 24, and 48 hours post-dose, and kept at reduced temperature (approx 4° C.) until centrifuged. Blood samples were centrifuged, plasma separated and 50 μL aliquot of the plasma transferred to a scintillation vial for counting. At the end of the experimental period animals were euthanased via a lethal overdose of pentobarbital. The level of radioactivity in the plasma was measured following mixing of samples with Packard Ultima Gold liquid scintillation counting cocktail. Counting was conducted on a Beckman liquid scintillation counter (LS6500) or Packard TriCarb liquid scintillation counter for 10 minutes per sample. Results (DPM, calculated from an in-built quench curve in the counter) were corrected for background prior to any calculations. The pharmacokinetic parameters were calculated using PK Solutions 2.0 software (Summit Research Services, Ohio, U.S.A.) and are summarised in Table 11 below.

Half-life (iv): 10.3 h
SMILES: CC(C)CCC[C@@H](C)[C@H]1CC[C@H]2[C@@H]3CCC4CC(OCc5cn([C@@H]6O[C@H](COS(=O)(=O)[O-])[C@@H](O[C@H]7O[C@H](COS(=O)(=O)[O-])[C@@H](O[C@H]8O[C@H](COS(=O)(=O)[O-])[C@@H](OS(=O)(=O)[O-])[C@H](OS(=O)(=O)[O-])[C@H]8OS(=O)(=O)[O-])[C@H](OS(=O)(=O)[O-])[C@H]7OS(=O)(=O)[O-])[C@H](OS(=O)(=O)[O-])[C@H]6OS(=O)(=O)[O-])nn5)CC[C@]4(C)[C@H]3CC[C@]12C.[Na+].[Na+].[Na+].[Na+].[Na+].[Na+].[Na+].[Na+].[Na+].[Na+] (stereo partly drawn) [Compound 70, 4-(Cholestan-3-yl-oxymethyl)[1,2,3]triazol-1-yl 2,3,4,6-tetra-O-sodium sulfonato-α-D-glucopyranosyl-(1→4)-2,3,6-tri-O-sodium sulfonato-α-D-glucopyranosyl-(1→4)-1-deoxy-2,3,6-tri-O-sodium sulfonato-β-D-glucopyranoside]
